Experimental data from article PMC7995547, “ω‐Imidazolyl‐alkyl derivatives as new preclinical drug candidates for treating non‐alcoholic steatohepatitis” (Physiological Reports, 2021).
“And” between values parts separate entries of the source, which are not always exact repeats. Identical values can stand only once.

How the values were obtained:
Format in all cases: in vivo, Wistar rats
[1] = test system: HFD‐induced NASH rat model (liver); assay: Oxidative stress (ROS status) in the liver, HFD-induced NASH rat model
Description: (§1) Studies were done using Wistar rats of female sex by the Institute of Pharmacology and Biochemistry at Minsk. The animals were 80–90 days old and weighed 180–200 g. They had free access to a liquid Lieber‐DeCarli (LDC) diet (Lieber et al., 2004) and were housed under standard conditions meaning a 12‐h light/dark cycle at 22 ± 2°C and 55 ± 5% humidity.
The rats were divided into 10 groups based on the diets and experimental substances administered (Figure 2).
(§2) Group 1 was designated as the first control group; it was fed a normal standard solid diet. Group 2, as the second control group, was fed a standard amount of fat as a part of the liquid “physiological,” non‐high fat LDC diet. All other groups received the liquid ‘disease‐causing’ LDC diet (Table 2), including a high content of unsaturated fatty acids.
(§3) Both LDC diets were in a liquid form as produced by ssniff‐Spezialdiäten GmbH, Soest (Germany). The feed was provided over the entire experimental period of 16 weeks; however, the corresponding experimental substances were only administered in the last four weeks (Figure 3).
(§4) The experimental substances I‐ol, I‐an, and UDCA were dissolved in a 0.8% aqueous HPMC gel to obtain the following concentrations: (1) I‐ol at 0.4, 4, and 40 mg/kg body weight (b.w.), (2) I‐an at 0.4, 4, and 40 mg/kg b.w., and (3) UDCA at 40 mg/kg b.w. The Group‐2 and −3 rats received only HPMC as placebo. Each test encompassed 6–8 rats that were put up in a separate cage. The rats were fed ad libitum, and their intake per cage was controlled daily. In order to ensure an exact daily reproducible dosage, the experimental substances or only HPMC was administered intragastrically via oral gavage. Basically, the drug therapy of a chronic disease is the more efficient the higher the adherence of the affected patients. This is generally higher with peroral administration than with any other form of application. At the end of the experiment, the animals were sacrificed under fasting conditions, by aorta dissection and exsanguination, after anesthetizing with an intraperitoneal injection of 5% pentobarbital solution.
The formation of ROS in the rat liver was measured using NADPH‐induced chemiluminescence as described by Müller‐Peddinghaus et al. (Muller‐Peddinghaus, 1987). Luminol and lucigenin were used for detecting the superoxide radical anion (SRA) and hydrogen peroxide. Liver pieces were homogenized in 0.1 M sodium phosphate buffer, pH 7.4; the homogenates were centrifuged at 9,000 × g at 0°C; and aliquots were used for subsequent measurements. Reduced glutathione (GSH) was estimated via a modified Ellman's method (Ellman, 1959), in which 0.2 mL of the liver homogenate supernatant was added to 1.6 mL of an EDTA/sodium phosphoric acid solution and the absorbance noted at 412 nm against blank values. GSH solution produced immediately before application served as the standard. The end products of the lipid peroxidation reaction were equivalent to the thiobarbituric acid‐reacting substances (TBARS), and their concentration was measured according to the method described by Buege et al. (Buege & Aust, 1978). Enzymatic activities of microsomal glutathione reductase (GR) and cytosolic glutathione peroxidase (GPx) were measured according to the methodology of Buko et al. (Buko et al., 2002). Catalase activity was determined according to the spectroscopic methodology described by Beers et al. (Beers & Sizer, 1952) using hydrogen peroxide as the substrate.

[2] = test system: HFD‐induced NASH rat model (liver and serum); assay: End products of fat metabolism (liver and serum lipids), NASH rat model
Description: as §1, §2, §3, §4
(§5) The activities of the liver enzymes aspartate aminotransferase (AST), alanine aminotransferase (ALT), alkaline phosphatase (AP), and γ‐glutamyl transferase (γ‐GT) as well as bilirubin and triglyceride levels in the serum were determined as described by the instructions of BIO‐LA‐tests kit (Erba Lachema, Brno, Czech Republic).
Extraction of lipids was performed using a solvent composed of chloroform and methanol (2:1 v/v). Thin‐layer chromatography (TLC) was used to separate off neutral lipids and phospholipids. Silicagel G 60 plates (0.25 mm thick) were used. The lipids were separated by ascending chromatography in a system composed of hexane:diethylic ether:glacial acetic acid (73:25:2; v/v/v). They were visualized by iodine vapor and the spots corresponding to triglycerides and cholesterol were scraped off and eluted with methanol for spectrophotometric evaluation. Triglyceride and cholesterol levels were determined using the BIO‐LA‐test kit (Erba Lachema, Brno, Czech Republic). Phospholipid concentration was determined by measuring the levels of phosphomolybdate using an inorganic phosphate reagent containing molybdate (Findlay & Evans, 1987). VLDL level was determined by using the manganese precipitation method (Burstein & Scholnick, 1973) after partial modification (Hirano et al., 2003).

[3] = test system: HFD‐induced NASH rat model (serum); assay: Liver enzyme activities and bilirubin in serum, NASH rat model
Description: as §1, §2, §3, §4, §5

[4] = test system: HFD‐induced NASH rat model (liver); assay: Liver histopathology, semi‐quantitative evaluation, NASH rat model; conditions: H.E.‐stained liver slices
Description: as §1, §2, §3, §4
Pieces of liver tissue measuring 1 × 2 × 0.5 mm were chosen randomly and fixed for a week in the mixture of 1% formaldehyde and 1% paraformaldehyde in Sorensen's phosphate buffer (pH 7.4) (Morphisto GmbH, Frankfurt/Main). After this the pieces were kept in 2.5% glutaraldehyde in same buffer, rinsed and then post‐fixed in 1% solution of osmium tetroxide on the Sorensen's phosphate buffer (pH 7.4). After fixation, the liver samples were dehydrated and embedded in the pre‐polymerized mixture of methyl methacrylate and butyl methacrylate (1:4, v/v) containing 2,4‐dichlorbenzoyl peroxide as a catalyst.
[…] A semi‐quantitative evaluation of the sections was performed according to the procedure described by Koppe et al. (Koppe et al., 2004).

[5] = liver, average over doses (I‐ol, I‐an), UDCA 40 mg/kg b.w.
[6] = liver, highest concentration (40 mg/kg b.w.)
[7] = average over doses (I‐ol, I‐an), UDCA 40 mg/kg b.w.
[8] = average over doses, UDCA 40 mg/kg b.w.
[9] = serum, average over doses (I‐ol, I‐an), UDCA 40 mg/kg b.w.
[10] = serum, highest concentration (40 mg/kg b.w.)
[11] = serum, number: highest concentration (40 mg/kg b.w.), words: compound overall

CCCCCCCCCCCCn1ccnc1 [I‐an, 1‐imidazolyldodecane]
Dose dependence of the effect on GSH level ([1]; 0.4, 4, 40 mg/kg b.w.): weak, significant (p < 0.05), linear, dose‐dependent effect
Dose dependence of the effect on SRA level ([1]; 0.4, 4, 40 mg/kg b.w., Pearson correlation / linear regression): weak, significant (p < 0.05), linear, dose‐dependent effect
Increase in GR activity compared to disease group ([1]; liver, I‐ol, I‐an groups overall, UDCA 40 mg/kg b.w.): no effect
Decrease in SRA level compared to disease group ([1]; liver, average over 0.4, 4, 40 mg/kg b.w. (I‐ol, I‐an), UDCA 40 mg/kg b.w., oral gavage daily, last 4 of 16 weeks HFD): 23%
Decrease in TBARS level compared to disease group [1, 5]: 35%
Reduction of the effect of HFD on the SRA level [1, 5]: 65%
Reduction of the effect of HFD on the TBARS level [1, 5]: 82%
Decrease in hydrogen peroxide level compared to disease group [1, 6]: 43%
Hydrogen peroxide level below the reference values of group 1 [1, 6]: 4%
Increase in GSH level compared to disease group [1, 6]: 63%
Reduction of SRA level [1, 6]: 75%
Reduction of the effect of HFD on GSH level [1, 6]: 87%
Dose dependence of the effect on liver phospholipid levels ([2]; 0.4, 4, 40 mg/kg b.w.): strong and very highly significant (p < 0.001), linear, dose‐dependent effect
Reduction of the effect of HFD on liver phospholipid levels ([2]; average over doses): 53%
Serum triglyceride level below the reference value of group 1 ([2]; average over doses): 4%
Decrease in liver triglyceride levels compared to disease group [2, 7]: 15%
Reduction of the effect of HFD on liver triglyceride levels [2, 7]: 33%
Decrease in liver phospholipid levels compared to disease group [2, 8]: 13%
Decrease in serum LDL cholesterol [2, 8]: non‐significant trend toward lowering the serum LDL level
Decrease in serum triglyceride levels compared to disease group [2, 8]: 12%
Liver phospholipid level above the reference value of group 1 ([2]; highest concentration (40 mg/kg b.w.)): 3%
Liver cholesterol level below the reference value of group 1 ([2]; low dose (0.4 mg/kg b.w.)): 8%
Reduction of liver cholesterol level compared to disease group ([2]; low dose (0.4 mg/kg b.w.)): 18%
Dose dependence of the effect on ALT activity ([3]; 0.4, 4, 40 mg/kg b.w.): weak, significant (p < 0.05), linear, dose‐dependent effect
Dose dependence of the effect on AP activity ([3]; 0.4, 4, 40 mg/kg b.w.): weak but significant (p < 0.05), linear, dose‐dependent effect
Dose dependence of the effect on AST activity ([3]; 0.4, 4, 40 mg/kg b.w.): moderate, very highly significant (p < 0.001), linear, dose‐dependent effect
Decrease in serum bilirubin level compared to disease group [3, 8]: no therapeutic effect
Decrease in γ‐GT enzymatic activity compared to disease group [3, 9]: 35%
Reduction of the effect of HFD on γ‐GT activity [3, 9]: 86%
Reduction of the effect of HFD on AP activity [3, 10]: 89%
Reduction of the effect of HFD on AST activity [3, 10]: 92% and 90%
Decrease in ALT enzymatic activity compared to disease group ([3]; serum, highest concentrations (40 mg/kg b.w.)): 20%
Reduction of the effect of HFD on ALT activity ([3]; serum, highest concentrations (40 mg/kg b.w.), b87: dose not stated): 66% and ~70%
Decrease in AP enzymatic activity compared to disease group [3, 11]: 21%
Decrease in AST enzymatic activity compared to disease group [3, 11]: 21%
Balooning score ([4]; 0.4 mg/kg b.w. + HFD): 0–1
Inflammation score ([4]; 0.4 mg/kg b.w. + HFD): 1 (1, <5 signs of inflammation)
Steatosis score ([4]; 0.4 mg/kg b.w. + HFD): 0–1
Balooning score ([4]; 4.0 mg/kg b.w. + HFD): 1 (1, ≤25%)
Inflammation score ([4]; 4.0 mg/kg b.w. + HFD): 1 (1, <5 signs of inflammation)
Steatosis score ([4]; 4.0 mg/kg b.w. + HFD): 0–1
Balooning score ([4]; 40.0 mg/kg b.w. + HFD): 0–1
Inflammation score ([4]; 40.0 mg/kg b.w. + HFD): 1 (1, <5 signs of inflammation)
Steatosis score ([4]; 40.0 mg/kg b.w. + HFD): 0–1
